Experimental data published in BindingDB's records for doi:10.7270/Q2V986KM (Burnham Center For Chemical Genomics, 2011).

molecular target: T1, Carboxy-terminal domain RNA polymerase II polypeptide A small phosphatase 1 (Homo sapiens, UniProt Q9GZU7); experiment: Ultra-high-throughput screening actives, CTDSP1 enzyme inhibition, concentration-response testing, biochemical, absorbance detection (AID 540297)
T1 sequence (Q9GZU7 whole entry): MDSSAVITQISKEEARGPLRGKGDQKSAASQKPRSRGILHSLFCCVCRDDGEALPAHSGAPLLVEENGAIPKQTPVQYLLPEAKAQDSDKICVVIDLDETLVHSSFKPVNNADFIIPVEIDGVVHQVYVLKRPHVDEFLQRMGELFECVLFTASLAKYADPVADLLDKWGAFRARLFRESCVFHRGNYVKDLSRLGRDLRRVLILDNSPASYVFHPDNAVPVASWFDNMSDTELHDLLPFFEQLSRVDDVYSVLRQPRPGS

Compound | IC50
COc1ccc(CN=Nc2nc(O)c(CC(=O)O)s2)cc1OCc1ccc(Cl)cc1Cl [[2-({3-[(2,4-dichlorobenzyl)oxy]-4-methoxybenzylidene}hydrazono)-4-oxo-1,3-thiazolidin-5-yl]acetic acid] | 4.48 µM
COc1ccc(/C=C/C(=O)Oc2cccc(C=NNC(=O)c3cccc(F)c3)c2)cc1 [[3-[[(3-fluorobenzoyl)hydrazinylidene]methyl]phenyl] (E)-3-(4-methoxyphenyl)prop-2-enoate] | 12.8 µM

More lines, now with the values ahead:

IC50 | Compound
4.04 µM | O=C(CSc1nc(O)cc(=O)[nH]1)Nc1ccccc1[N+](=O)[O-] [SMR000620617]
3.46 µM | COc1cccc(N/C(C)=[N+](\C)CCNS(=O)(=O)c2ccc(Cl)cc2)c1 [SMR000672481]
8.6 µM | O=C(NN=C/C(Cl)=C/c1ccccc1)c1ccc2c(c1)OCO2 [SMR001240783]
3.51 µM | CCOc1ccc(CN=Nc2ccc(S(=O)(=O)Nc3ccccc3C(=O)O)cc2[N+](=O)[O-])cc1OC [SMR001308940]
